Measured values taken from patent US4620014A, “2-furylbutyrolactones and methods for using same” (priority 1983, dated 1986).
Where two headings read alike, the source gives them in different places.

Experiments:
[1] = system: antibody response to bovine serum albumin (BSA); conditions: for stimulation of antibody response to BSA: day 13
Description: (§1) The effect of the compounds of this invention on the immune response to specific antigens involves immunization of mice with specific anitgens such as bovine serum albumin (BSA) or keyhole limpet hemocyanin (KLH). Following immunization, it is possible to assess the cell-mediated or humoral (antibody) immune response to these antigens by various methods:
(§2) (2) Antibody response to soluble antigens such as BSA or KLH can be quantitated using a micro-ELISA solid phase heterogeneous immunoassay. The assay can be designed to quantitate class specific immunoglobulins (i.e., IgG or IgM).
(§3) The cut-off for the titer was the highest dilution of mouse serum yielding an O.D.≤0.1 when read on the MR-600 Dynatech micro-ELISA reader.
Mice of the C57BL/6 strain are given i.p. injections of either 50, 100, 200 or 400 mg/kg of Cpd. 1 or buffer for twelve days (days 1-12). An antigen, bovine serum albumin (BSA), is administered intraperitoneally with Freund's Complete Adjuvant (FCA) on days 1, 7 and 14. Blood samples are taken for assay of the antibody response on days 0, 5, 13, and 19.

CD rats = conditions: 14 days
Method: (§4) Single oral dose LD50 in CD-1 mice and CD rats, obtained from Charles River U.K. Ltd., for Cpd. 1 is determined. […] Cpd. 1, dissolved in buffer, or just buffer is administered orally and the mice and rats are observed for 14 days after dosing. After 14 days, the animals are sacrified and necropsy is performed to check for gross evidence of toxicity.

CD-1 mice = conditions: 14 days
Method: as §4

[2] = system: antibody response to keyhole limpet hemocyanin (KLH)
Description: as §1, §2, §3
Mice of the C57BL/6 strain are given i.p. injections of either 50, 100, 200 or 400 mg/kg of Cpd. 1 or buffer for ten days (days 1-10). An antigen, keyhole limpet hemocyanin (KLH), is administered intraperitoneally with Freund's Complete Adjuvant (FCA) on days 1, 7, and 13. Blood samples are taken for assay of the antibody response on days 0, 5, 12, and 17. Spleens are removed, lymphocytes isolated and a lymphocyte stimulation assay with PHA, Con-A or KLH antigen as the mitogens is performed on day 17 of the experiment.

FLC-745 cells = assay: MLTC assay of CTL activity, FLC-745 target cells; type: cell-based
Description: A mixed lymphocyte tumor culture (MLTC) immunoassay, used to determine the cytotoxic lymphocyte (CTL) activity employs lymphocytes from either immunized (sensitized) mice or DBA/2 tumor dormant state animals in various stages of the tumor dormant state (TDS). The assay employs L5178Y target cells labeled with ^51 Chromium and effector cells (sensitized lymphocytes) from the above-mentioned sources. Effector-target cell ratios will vary with different experimental conditions and may or may not include irradiated stimulator L5178Y cells. Results are expressed as % lysis of target cells based on ratio of cpm of test group over cpm of total release (maximum) both of which are corrected for spontaneous release of ^51 Cr. The assay can be performed as an 8 or 18 hour release assay.
An MLTC assay is performed to assess the CTL activity and tumor target cell specificity of Cpd. 1. Tumor dormant spleen cells and normal spleen cells of DBA/2 mice are used as effector cells. Irradiated L5178Y cells are used as stimulator cells. ^51 Cr-labeled L5178Y cells and FLC-745 cells are used as target cells. The effector/target ratios studied are 100:1, 30:1 and 10:1.

human lymphocytes = assay: In vitro lymphocyte stimulation assay in humans; type: cell-based; conditions: PHA and Con-A
Method: The purpose of this assay is to challenge lymphocytes in microcultures with one or more polyclonal mitogens at concentrations that will induce mitogenesis within 72 hours of stimulation.
In the mouse model, spleens are removed from different strains of mice and the spleen cells are teased free and suspended in RPMI-1640 tissue culture medium at a concentration of usually 1×10^7 ml. These cells are dispensed at a concentration of 5.0×10^5 cells per microculture well in a 96 well flat bottom 96 well tissue culture plate. All testing of the compounds of this invention or mitogens are done in replicates of 10. The cells are then treated with PHA, Con-A, specific antigens, or buffer only. If in vitro testing is done, varying concentrations of the compounds of this invention or buffer only are added to the cells as well. After treatment with the mitogens and/or compounds of this invention, the cells are incubated for 72 hours. The response of these cells to mitogens and/or the compounds of this invention is assessed using ^14 C-thymidine labeling on the fourth day at a concentration of 0.01 μCi/well. The labeled cells are harvested using a lymphocyte harvestor and placed onto fibrous paper discs. A scintillation cocktail is added to vials contaning the discs and the results are obtained using a LKB-liquid scintillation counter (Model 1216/Rackbeta II). The data is expressed as a ratio of the cpm of the mitogen stimulated group to the control (non-mitogen) treated group=lymphocyte stimulation index (LSI).
The lymphocyte stimulation assay may be performed directly on spleen cells obtained from various strains of mice not treated with the compounds of this invention or on lymphocytes obtained from […]. […] Alternatively, the mice may be treated in vivo with the compounds of this invention by intraperitoneal multi-dose schedules, followed by sacrifice and harvesting spleen lymphocytes. These cells are then tested for their response to polyclonal mitogens or specific antigens used to immunize the mice. […]

Compound: Cc1ccc(C2(O)C(=O)OC3C(O)COC32O)o1.Cc1ccc(C2(O)C(=O)OC3C(O)COC32O)o1.O=C1CCC(=O)O1 (centres unmarked) [Cpd. 1]
- Micro-ELISA Titer ([1]; 50 mg/kg i.p., day 5): N/R
- Micro-ELISA Titer ([1]; 50 mg/kg i.p., prebleed): N/R
- antibody titer over the control ([1]; 50 mg/kg, day 19): slight increase
- Micro-ELISA Titer ([1]; 100 mg/kg i.p., day 5): N/R
- Micro-ELISA Titer ([1]; 100 mg/kg i.p., prebleed): N/R
- Micro-ELISA Titer ([1]; 200 mg/kg i.p., day 5): N/R
- Micro-ELISA Titer ([1]; 200 mg/kg i.p., prebleed): N/R
- Micro-ELISA Titer ([1]; 400 mg/kg i.p., day 5): N/R
- Micro-ELISA Titer ([1]; 400 mg/kg i.p., prebleed): N/R
- stimulation of antibody response to BSA ([1]; 50 and 100 mg/kg): slight amount of stimulation
- increase of antibody response to BSA over controls ([1]; 100 and 200 mg/kg, day 19): 16 fold
- stimulation of antibody response to BSA ([1]; 200 and 400 mg/kg): significant (four-fold) stimulation
- deaths or signs of toxicity (CD rats; single oral 5 g/kg): No deaths or signs of toxicity
- LD50 (CD rats; single oral dose): > 5000 mg/kg
- deaths or signs of toxicity (CD-1 mice; single oral 5 g/kg): No deaths or signs of toxicity
- LD50 (CD-1 mice; single oral dose): > 5000 mg/kg
- Micro-ELISA Titer ([2]; 50 mg/kg i.p., day 5): N/R
- Micro-ELISA Titer ([2]; 50 mg/kg i.p., prebleed): N/R
- Micro-ELISA Titer ([2]; 100 mg/kg i.p., day 5): N/R
- Micro-ELISA Titer ([2]; 100 mg/kg i.p., prebleed): N/R
- Micro-ELISA Titer ([2]; 200 mg/kg i.p., day 5): N/R
- Micro-ELISA Titer ([2]; 200 mg/kg i.p., prebleed): N/R
- Micro-ELISA Titer ([2]; 400 mg/kg i.p., day 5): N/R
- Micro-ELISA Titer ([2]; 400 mg/kg i.p., prebleed): N/R
- stimulation of antibody response to KLH over control ([2]; 200 and 400 mg/kg, day 12): significant stimulation (four-fold increases)
- increase of antibody response to KLH over untreated antigen-sensitized controls ([2]; 200 and 400 mg/kg, day 17): eight-fold increase
- % Lysis (FLC-745 cells; E + D (TDS effector, no stimulator), E/T 10:1): 0.7%
- % Lysis (FLC-745 cells; E + D (TDS effector, no stimulator), E/T 30:1): 4.6%
- % Lysis (FLC-745 cells; E + D (TDS effector, no stimulator), E/T 100:1): 6.6%
- % Lysis (FLC-745 cells; E + S + D (TDS effector, stimulator), E/T 10:1): 0.5%
- % Lysis (FLC-745 cells; E + S + D (TDS effector, stimulator), E/T 30:1): 3.6%
- % Lysis (FLC-745 cells; E + S + D (TDS effector, stimulator), E/T 100:1): 13.4%
- enhancement of CTL activity (FLC-745 cells; FLC-745 target system (Example 28)): not observed
- % Lysis (FLC-745 cells; N + D (normal effector, no stimulator), E/T 10:1): -3.5%
- % Lysis (FLC-745 cells; N + D (normal effector, no stimulator), E/T 30:1): 0.9%
- % Lysis (FLC-745 cells; N + D (normal effector, no stimulator), E/T 100:1): 13.9%
- % Lysis (FLC-745 cells; N + S + D (normal effector, stimulator), E/T 10:1): -1.1%
- % Lysis (FLC-745 cells; N + S + D (normal effector, stimulator), E/T 30:1): -0.8%
- % Lysis (FLC-745 cells; N + S + D (normal effector, stimulator), E/T 100:1): 5.8%
- lymphocyte response, very low doses (human lymphocytes; 1 and 0.1 μg/ml): markedly increased lymphocyte response
- lymphocyte response, high dose (human lymphocytes; 100 and 50 μg/ml): high dose anti-proliferative effect
